According to patent US11739070B2, “C5A receptor modulators” (IDORSIA PHARMACEUTICALS LTD, priority 2018, dated 2023):
pIC50: −log10 of the molar value.

Target: T1, C5AR1 (Homo sapiens, UniProt P21730)
T1 construct: host or cells: CHO-K1
T1 sequence (P21730 1-350): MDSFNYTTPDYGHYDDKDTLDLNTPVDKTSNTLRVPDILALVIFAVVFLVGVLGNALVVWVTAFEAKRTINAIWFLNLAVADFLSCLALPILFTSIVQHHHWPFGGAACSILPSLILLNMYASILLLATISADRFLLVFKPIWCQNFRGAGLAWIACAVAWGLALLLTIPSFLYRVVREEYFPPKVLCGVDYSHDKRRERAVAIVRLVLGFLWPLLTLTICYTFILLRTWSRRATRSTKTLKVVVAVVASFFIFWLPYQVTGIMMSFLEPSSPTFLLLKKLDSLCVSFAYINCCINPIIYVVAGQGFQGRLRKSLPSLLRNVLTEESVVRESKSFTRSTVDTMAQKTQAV
Experiment: hC5a DISCO IC50 assay (PathHunter beta-arrestin, antagonist mode)
Assay type: cell-based
Details: CHO-K1 C5AR1 beta-arrestin cell line; antagonist vs 1-10 nM C5a agonist; geometric mean values; read-out: C5aR IC50
How it was run: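 Antagonist added first, then 1-10 nM C5a agonist; cells incubated 1.5 h at 37 °C. Beta-arrestin signal developed with PathHunter detection reagent, 45 min at RT. IC50 in nmol/l from serial antagonist dilutions, reported as geometric mean of several measurements.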

pIC50 | SMILES
7.40 | COc1cccc2c1n(Cc1ccccc1OC1COC1)c(=O)n2C1CCN(c2c(C)cccc2F)CC1 [Example 225, 1-[1-(2-Fluoro-6-methyl-phenyl)-piperidin-4-yl]-4-methoxy-3-[2-(oxetan-3-yloxy)-benzyl]-1,3-dihydro-benzoimidazol-2-one]
6.23 | COc1cccc2c1n(Cc1ccccc1C(F)(F)F)c(=O)n2[C@@H]1CCN(c2c(F)cccc2C(C)N2CC(OC)C2)C1 (stereo partly drawn) [Example 163, 1-((R)-1-{2-Fluoro-6-[1-(3-methoxy-azetidin-1-yl)-ethyl]-phenyl}-pyrrolidin-3-yl)-4-methoxy-3-(2-trifluoromethyl-benzyl)-1,3-dihydro-benzoimidazol-2-one]
6.91 | Cc1cccc(F)c1N1CC[C@@H](n2c(=O)n(Cc3ccccc3C(F)(F)F)c3c(OCC4COC(C)(C)O4)nccc32)C1 (stereo partly drawn) [Example 125, 4-(2,2-Dimethyl-[1,3]dioxolan-4-ylmethoxy)-1-[(R)-1-(2-fluoro-6-methyl-phenyl)-pyrrolidin-3-yl]-3-(2-trifluoromethyl-benzyl)-1,3-dihydro-imidazo[4,5-c]pyridin-2-one]
6.94 | COc1cccc2c1n(Cc1ccccc1C(F)(F)F)c(=O)n2C1C2CC1CN(C(=O)OC(C)(C)C)C2 (stereo not drawn) [Example 191, 6-[4-Methoxy-2-oxo-3-(2-trifluoromethyl-benzyl)-2,3-dihydro-benzoimidazol-1-yl]-3-aza-bicyclo[3.1.1]heptane-3-carboxylic acid tert-butyl ester]
7.18 | COc1cccc2c1n(Cc1ccccc1C(F)(F)F)c(=O)n2C1CCN(c2ccccc2OCc2ccccc2)CC1 [Example 231, 1-[1-(2-Benzyloxy-phenyl)-piperidin-4-yl]-4-methoxy-3-(2-trifluoromethyl-benzyl)-1,3-dihydro-benzoimidazol-2-one]
6.78 | COc1nccc2c1n(Cc1ccccc1C(F)(F)F)c(=O)n2[C@@H]1CCN(c2c(C)ccnc2F)C1 [Example 48, 1-[(R)-1-(2-Fluoro-4-methyl-pyridin-3-yl)-pyrrolidin-3-yl]-4-methoxy-3-(2-trifluoromethyl-benzyl)-1,3-dihydro-imidazo[4,5-c]pyridin-2-one]
7.55 | COc1cccc2c1n(Cc1ccccc1C(F)(F)F)c(=O)n2[C@@H]1CCN(c2c(F)cccc2C(C)OC)C1 (stereo partly drawn) [Example 148, 1-{(R)-1-[2-Fluoro-6-(1-methoxy-ethyl)-phenyl]-pyrrolidin-3-yl}-4-methoxy-3-(2-trifluoromethyl-benzyl)-1,3-dihydro-benzoimidazol-2-one]
7.15 | COc1cccc2c1n(Cc1ccccc1C(F)(F)F)c(=O)n2[C@@H]1CCN(c2c(F)cccc2CN2CCCCC2)C1 [Example 133, 1-[(R)-1-(2-Fluoro-6-piperidin-1-ylmethyl-phenyl)-pyrrolidin-3-yl]-4-methoxy-3-(2-trifluoromethyl-benzyl)-1,3-dihydro-benzoimidazol-2-one]
8.05 | COc1cccc2c1n(Cc1ncccc1OC(C)C)c(=O)n2[C@@H]1CCN(c2c(C)cccc2F)C1 [Example 182, 1-[(R)-1-(2-Fluoro-6-methyl-phenyl)-pyrrolidin-3-yl]-3-(3-isopropoxy-pyridin-2-ylmethyl)-4-methoxy-1,3-dihydro-benzoimidazol-2-one]
5.64 | COc1cccc2c1n(Cc1ccccc1C(F)(F)F)c(=O)n2C1CCN(C(=O)OC(C)(C)C)CC1F (stereo not drawn) [Example 210, 3-Fluoro-4-[4-methoxy-2-oxo-3-(2-trifluoromethyl-benzyl)-2,3-dihydro-benzoimidazol-1-yl]-piperidine-1-carboxylic acid tert-butyl ester]
5.73 | COc1cccc2c1n(Cc1cnccc1C(F)(F)F)c(=O)n2C1CCN(C(=O)OC(C)(C)C)CC1 [Example 53, 4-[4-Methoxy-2-oxo-3-(4-trifluoromethyl-pyridin-3-ylmethyl)-2,3-dihydro-benzoimidazol-1-yl]-piperidine-1-carboxylic acid tert-butyl ester]
7.51 | COc1cccc2c1n(Cc1ccccc1C(F)(F)F)c(=O)n2[C@@H]1CCN(c2ccccc2OC(F)(F)F)C1 [Example 201, 4-Methoxy-1-[(R)-1-(2-trifluoromethoxy-phenyl)-pyrrolidin-3-yl]-3-(2-trifluoromethyl-benzyl)-1,3-dihydro-benzoimidazol-2-one]
7.41 | COc1ccnc2c1n(Cc1ccccc1C(F)(F)F)c(=O)n2[C@@H]1CCN(c2c(F)cccc2F)C1 [Example 46, 3-[(R)-1-(2,6-Difluoro-phenyl)-pyrrolidin-3-yl]-7-methoxy-1-(2-trifluoromethyl-benzyl)-1,3-dihydro-imidazo[4,5-b]pyridin-2-one]
6.40 | COc1cccc2c1n(Cc1ccccc1C(F)(F)F)c(=O)n2[C@@H]1CCN(C(=O)OC2COC2)C1 [Example 72, (R)-3-[4-Methoxy-2-oxo-3-(2-trifluoromethyl-benzyl)-2,3-dihydro-benzoimidazol-1-yl]-pyrrolidine-1-carboxylic acid oxetan-3-yl ester]
7.31 | COc1cccc2c1n(Cc1nccnc1OC(C)C)c(=O)n2C1CCN(c2c(C)cccc2F)CC1 [Example 178, 1-[1-(2-Fluoro-6-methyl-phenyl)-piperidin-4-yl]-3-(3-isopropoxy-pyrazin-2-ylmethyl)-4-methoxy-1,3-dihydro-benzoimidazol-2-one]
6.64 | COc1cccc2c1n(Cc1ccccc1C(F)(F)F)c(=O)n2[C@@H]1CCN(c2c(F)cccc2CN(C)C)C1 [Example 106, 1-[(R)-1-(2-Dimethylaminomethyl-6-fluoro-phenyl)-pyrrolidin-3-yl]-4-methoxy-3-(2-trifluoromethyl-benzyl)-1,3-dihydro-benzoimidazol-2-one]
5.35 | COc1cccc2c1n(Cc1ccccc1C(F)(F)F)c(=O)n2C1CCN(C(C)C)CC1 [Example 35, 1-(1-Isopropyl-piperidin-4-yl)-4-methoxy-3-(2-trifluoromethyl-benzyl)-1,3-dihydro-benzoimidazol-2-one]
6.66 | COc1ncncc1Cn1c(=O)n([C@@H]2CCN(c3c(C)cccc3F)C2)c2cccc(OC)c21 [Example 175, 1-[(R)-1-(2-Fluoro-6-methyl-phenyl)-pyrrolidin-3-yl]-4-methoxy-3-(4-methoxy-pyrimidin-5-ylmethyl)-1,3-dihydro-benzoimidazol-2-one]
6.14 | COc1cccc2c1n(Cc1ccccc1C(F)(F)F)c(=O)n2[C@@H]1CCN(C(=O)Oc2ccccc2)C1 [Example 63, (R)-3-[4-Methoxy-2-oxo-3-(2-trifluoromethyl-benzyl)-2,3-dihydro-benzoimidazol-1-yl]-pyrrolidine-1-carboxylic acid phenyl ester]
7.35 | COC1CN(c2nccc3c2n(Cc2ccccc2C(F)(F)F)c(=O)n3[C@@H]2CCN(c3c(C)cccc3F)C2)C1 [Example 205, 1-[(R)-1-(2-Fluoro-6-methyl-phenyl)-pyrrolidin-3-yl]-4-(3-methoxy-azetidin-1-yl)-3-(2-trifluoromethyl-benzyl)-1,3-dihydro-imidazo[4,5-c]pyridin-2-one]
6.15 | COc1cccc2c1n(Cc1ccccc1C(F)(F)F)c(=O)n2[C@@H]1CCN(c2c(C)c(C)nn2C)C1 [Example 85, 4-Methoxy-3-(2-trifluoromethyl-benzyl)-1-[(R)-1-(2,4,5-trimethyl-2H-pyrazol-3-yl)-pyrrolidin-3-yl]-1,3-dihydro-benzoimidazol-2-one]
5.87 | COc1nccnc1Cn1c(=O)n(C2CCN(c3c(F)cccc3C#N)CC2)c2cccc(OC)c21 [Example 97, 3-Fluoro-2-{4-[4-methoxy-3-(3-methoxy-pyrazin-2-ylmethyl)-2-oxo-2,3-dihydro-benzoimidazol-1-yl]-piperidin-1-yl}-benzonitrile]
5.54 | COc1cccc2c1n(Cc1ncccc1C(F)(F)F)c(=O)n2C1CCN(C(=O)OC(C)(C)C)CC1 [Example 64, 4-[4-Methoxy-2-oxo-3-(3-trifluoromethyl-pyridin-2-ylmethyl)-2,3-dihydro-benzoimidazol-1-yl]-piperidine-1-carboxylic acid tert-butyl ester]
6.57 | Cc1cccc(F)c1N1CC[C@@H](n2c(=O)n(Cc3ccccc3C(F)(F)F)c3c(OCCN4CCOCC4)nccc32)C1 [Example 121, 1-[(R)-1-(2-Fluoro-6-methyl-phenyl)-pyrrolidin-3-yl]-4-(2-morpholin-4-yl-ethoxy)-3-(2-trifluoromethyl-benzyl)-1,3-dihydro-imidazo[4,5-c]pyridin-2-one]
7.38 | COc1cccc2c1n(Cc1cncnc1C(C)C)c(=O)n2C1CCN(c2c(C)cccc2F)CC1 [Example 192, 1-[1-(2-Fluoro-6-methyl-phenyl)-piperidin-4-yl]-3-(4-isopropyl-pyrimidin-5-ylmethyl)-4-methoxy-1,3-dihydro-benzoimidazol-2-one]
8.22 | COc1cccc2c1n(Cc1ccccc1OC(C)C)c(=O)n2[C@@H]1CCN(c2c(C)cccc2F)C1 [Example 165, 1-[(R)-1-(2-Fluoro-6-methyl-phenyl)-pyrrolidin-3-yl]-3-(2-isopropoxy-benzyl)-4-methoxy-1,3-dihydro-benzoimidazol-2-one]

SMILES | pIC50
COc1cccc2c1n(Cc1ccccc1OC1CCC1)c(=O)n2C1CCN(c2c(C)cccc2F)CC1 [Example 226, 3-(2-Cyclobutoxy-benzyl)-1-[1-(2-fluoro-6-methyl-phenyl)-piperidin-4-yl]-4-methoxy-1,3-dihydro-benzoimidazol-2-one] | 7.44
